From BigSolDB 2.1

C=C1C[C@]23C[C@@]1(O)CC[C@H]2[C@@]12C=C[C@H](O)[C@@](C)(C(=O)O1)[C@H]2[C@@H]3C(=O)O
solubility (mole fraction)
Conditions | 278.15 K | 283.15 K | 288.15 K | 293.15 K | 298.15 K | 303.15 K | 308.15 K | 313.15 K | 318.15 K | 323.15 K
in DMSO | 0.121 | 0.138 | 0.159 | 0.184 | 0.207 | 0.233 | 0.263 | 0.291 | 0.323 | 0.362
in THF | 0.149 | 0.173 | 0.199 | 0.227 | 0.252 | 0.279 | 0.31 | 0.341 | 0.371 | 0.401
in acetone | 0.103 | 0.12 | 0.137 | 0.158 | 0.181 | 0.205 | 0.23 | 0.258 | 0.289 | 0.32
in acetonitrile | 0.00864 | 0.0119 | 0.0155 | 0.0197 | 0.0243 | 0.0294 | 0.0352 | 0.0413 | 0.0481 | 0.0565
in chloroform | 0.0222 | 0.0302 | 0.0386 | 0.0479 | 0.0591 | 0.0715 | 0.085 | 0.0994 | 0.114 | 0.13
in ethanol | 0.181 | 0.205 | 0.231 | 0.257 | 0.284 | 0.312 | 0.344 | 0.374 | 0.404 | 0.438
in ethyl acetate | 0.0679 | 0.0807 | 0.0956 | 0.112 | 0.132 | 0.152 | 0.175 | 0.203 | 0.235 | 0.271
in isopropanol | 0.000502 | 0.000563 | 0.000625 | 0.000688 | 0.000752 | 0.000821 | 0.000888 | 0.00096 | 0.00103 | 0.00111
in n-butanol | 0.0021 | 0.00318 | 0.00427 | 0.00554 | 0.00704 | 0.00876 | 0.0107 | 0.0129 | 0.0151 | 0.0173
in n-heptane | 8.4e-05 | 0.000116 | 0.000152 | 0.000192 | 0.000236 | 0.000289 | 0.000349 | 0.000407 | 0.000471 | 0.000537
in n-hexane | 0.00017 | 0.000202 | 0.000239 | 0.000282 | 0.00033 | 0.000386 | 0.000444 | 0.000511 | 0.000583 | 0.000666
